US9163032B2, “Esters of DCPLA and methods of treatment using the same” (Blanchette Rockefeller Neurosciences Institute, priority 2011, dated 2015)

Assays:
Wistar rats = assay: Water maze spatial learning and memory task; format: in vivo, rat; details: for water maze learning performance (escape latency) vs control: 8 doses, rats
Protocol: Water maze spatial learning and memory task (2 training trials/day for 4 days) was used to evaluate effects of oral DCPLA-ME on learning and memory in rats. A visible platform test was conducted after the end of the experiments to evaluate whether the treatment might result in an altered sensorimotor activity and escape motivation.
Male adult Wistar rats (200-250 g) were housed in a temperature-controlled (20-24° C.) room for a week, allowed free access to food and water, and kept on a 12-h light/dark cycle. Rats were anesthetized with sodium pentobarbital (60 mg/kg i.p) and placed in a stereotactic apparatus (Kopf Instruments, Tujunga, Calif.). The core temperature of rats was monitored and kept constant (38.0±0.5° C.) with warming light and pad. Two stainless steel guide cannulas were placed with the tips positioned at the coordinates (anterior-posterior, 0.5 mm; lateral, 1.5 mm; horizontal, 3.2 mm), under aseptic conditions. At the end of surgery and under appropriate anesthesia, rats received (s.c.) banamine (1 mg/kg) and ketoprofen (5 mg/kg) in lactate/Ringer's solution. A 7-day recovery period was allowed before any further experimentation.
On the first day of experiments, all rats were randomly assigned to different groups and swam for 2 min in a 1.5-(diameter)×0.6-m (depth) pool (22±1° C.). On the following day, rats were trained in a two-trial per day task for four consecutive days. Each training trial lasted for up to 2 min, during which rats learned to escape from water by finding a hidden platform that was placed at a fixed location and submerged 1 cm below the water surface. The navigation of the rats was tracked by a video camera. The escape latency and the route of rats' swimming across the pool to the platform were recorded. The quadrant test (1 min) was performed after removing the platform, 24 hr after the last training trial. […]
Data were analyzed using a target quadrant ratio (dividing the target quadrant distance by the average of the non-target quadrant values during the probe test; FIG. 14D).

PKC-ε = biological target: T1, PKC-ε (Homo sapiens, UniProt Q02156); assay: PKC activation assay with purified PKC-ε isozyme (32P-phosphoprotein formation); format: biochemical
T1 sequence (Q02156 1-737): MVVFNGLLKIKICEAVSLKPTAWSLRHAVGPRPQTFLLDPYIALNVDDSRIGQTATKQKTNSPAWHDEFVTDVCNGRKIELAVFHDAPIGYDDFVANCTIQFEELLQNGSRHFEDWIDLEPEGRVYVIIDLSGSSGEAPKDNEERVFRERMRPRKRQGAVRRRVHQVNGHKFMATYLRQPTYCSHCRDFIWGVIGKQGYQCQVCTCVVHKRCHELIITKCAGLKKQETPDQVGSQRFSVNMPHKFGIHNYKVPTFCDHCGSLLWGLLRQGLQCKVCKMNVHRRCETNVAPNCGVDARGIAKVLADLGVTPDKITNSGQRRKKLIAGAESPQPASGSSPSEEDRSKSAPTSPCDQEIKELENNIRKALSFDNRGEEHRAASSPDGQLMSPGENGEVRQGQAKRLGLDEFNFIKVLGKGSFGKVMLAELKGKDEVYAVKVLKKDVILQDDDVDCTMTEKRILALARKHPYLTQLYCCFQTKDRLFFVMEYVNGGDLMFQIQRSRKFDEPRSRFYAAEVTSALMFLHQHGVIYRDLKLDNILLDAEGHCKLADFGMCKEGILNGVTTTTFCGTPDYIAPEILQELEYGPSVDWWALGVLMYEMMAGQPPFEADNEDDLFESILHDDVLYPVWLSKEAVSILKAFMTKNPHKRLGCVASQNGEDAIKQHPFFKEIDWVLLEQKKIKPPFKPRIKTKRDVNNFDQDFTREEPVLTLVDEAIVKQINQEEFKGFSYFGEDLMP
Protocol: For measurement of PKC activation by DCPLA-ME, activation of recombinant PKC-α, PKC-ε, and PKC-δ was evaluated. DCPLA-ME induced activation was measured in the absence of diacylglycerol (DAG) and phosphatidylserine (PS) as described earlier. See Nelson, T. J. et al., J. Biol. Chem., 2009, 284: 34514-34521, and Kanno, T. et al., J. Cell Physiol., 2009, 221: 183-188. Individual enzymes were incubated for 15 min at 37° C. in the presence of 10 μM histones, 4.89 mM CaCl2, 10 mM MgCl2, 20 mM HEPES (pH 7.4), 0.8 mM EDTA, 4 mM EGTA, 4% glycerol, 8 μg/ml aprotinin, 8 μg/ml leupeptin, 2 mM benzamidine, and 0.5 μCi of [γ-^32P]ATP. Purified PKC-α, PKC-ε and PKC-δ were preincubated with DCPLA-ME for 5 min at room temperature. [^32P]-Phosphoprotein formation was measured by adsorption onto phosphocellulose.
To measure PKC, 10 μl of cell homogenate or purified PKC isozyme was incubated for 15 min at 37° C. in the presence of 10 μM histones, 4.89 mM CaCl2, 1.2 μg/μl phosphatidyl-L-serine, 0.18 μg/μl 1,2-dioctanoyl-sn-glycerol, 10 mM MgCl2, 20 mM HEPES (pH 7.4), 0.8 mM EDTA, 4 mM EGTA, 4% glycerol, 8 μg/ml aprotinin, 8 μg/ml leupeptin, and 2 mM benzamidine. [γ32P]ATP (0.5 μCi) was added and 32P-phosphoprotein formation was measured by adsorption onto phosphocellulose as described previously. See Nelson et al., J. Neurochemistry, 1995, 65: 2350-2357.
PKC activity of each compound was measured in the absence of diacylglycerol and phosphatidyl-L-serine and PKC-δ and PKC-ε were measured in the absence of added EGTA and CaCl2, as described by Kanno et al., J. Lipid Res., 2006, 47: 1146-1156. Low concentrations of Ca^2+ are needed because high Ca^2+ interacts with the PKC phosphatidylserine binding site and prevents activation. […] To determine their PKC isozyme specificity, the compounds were pre-incubated with purified isoforms of PKC for five minutes and the PKC activity was measured radiometrically.
The activation and PKC isozyme specificity of DCPLA-ethyl ester was measured following the procedures in Example 1(B) and (C), except that 9 ng of the purified isozyme was used and it was pre-incubated for 5 minutes at room temperature (FIG. 3). PKC-ε activation by DCPLA-tert-butyl ester and DCPLA-retinyl ester was measured in the same manner as DCPLA-ethyl ester (FIG. 3).
The EC50 values, PKC specificity, and activation for a select number of DCPLA esters was determined (see Table 1). EC50 values were determined by measuring the lowest concentration that activates by 50% of maximum activation. […] The specificity and activation of PKC by the various esters of DCPLA were determined from the measurements of activation of PKC isozymes.

CCCCCC1CC1CC1CC1CCCCCCCC(=O)OC (stereo not drawn) [DCPLA-ME, DCPLA methyl ester]
water maze learning performance (escape latency) vs control (Wistar rats; 5.3 mg/kg intragastric): did not reach a significant level
water maze learning performance (escape latency) vs control (Wistar rats; 16.0 mg/kg intragastric): improved learning performance
memory retention, target quadrant ratio vs control (Wistar rats; 16.0 mg/kg intragastric, probe test 24 hr after last trial): significant difference
Emax (PKC-ε; % of control of PKCε at maximum): 195%
Specificity ε/α (PKC-ε; Activation of PKC-ε ÷ activation or inhibition of PKCα at 3xEC50): 12.1
PKC isozyme specificity (PKC-ε; PKC-ε vs PKC-α and PKC-δ): relatively specific for PKC-ε
PKC-ε activation (PKC-ε; in a range of 0.01-10 μM): more than 50%
EC50 (PKC-ε; lowest concentration that activates by 50% of maximum activation): 3 nM
PKC-ε activation at its peak (PKC-ε; maximum, FIG. 1, 2, 4): up to 190 % of control
